Measured values as given in ChEMBL document CHEMBL1649292, “In vivo investigations of selected diamidine compounds against Trypanosoma evansi using a mouse model” (2009).
The source made the active and inactive calls. No cut-off for these calls is given here.

Experiments:
[1] = tested on: Trypanosoma evansi; assay: Antimicrobial activity against Trypanosoma evansi STIB 806K infected in NMRI mouse assessed as host survival days at 0.5 mg/kg, ip administered 3 to 6 days after infection for 4 consecutive days; assay type: functional; conditions: route intraperitoneal
[2] = tested on: Trypanosoma evansi; assay: Antimicrobial activity against Trypanosoma evansi STIB 806K infected in NMRI mouse assessed as complete cure from microbial infection at 0.5 mg/kg, ip administered 3 to 6 days after infection for 4 consecutive days; assay type: functional, organism-based; set-up: dose 0.5 mg/kg
[3] = tested on: Trypanosoma evansi; assay: Antimicrobial activity against Trypanosoma evansi STIB 806K infected in NMRI mouse assessed as host survival days at 2 mg/kg, ip administered 3 to 6 days after infection for 4 consecutive days; assay type: functional; conditions: route intraperitoneal
[4] = tested on: Trypanosoma evansi; assay: Antimicrobial activity against Trypanosoma evansi STIB 806K infected in NMRI mouse assessed as host survival days at 0.125 mg/kg, ip administered 3 to 6 days after infection for 4 consecutive days; assay type: functional; conditions: route intraperitoneal
[5] = tested on: Trypanosoma evansi; assay: Antimicrobial activity against Trypanosoma evansi STIB 806K infected in NMRI mouse assessed as complete cure from microbial infection at 2 mg/kg, ip administered 3 to 6 days after infection for 4 consecutive days; assay type: functional, organism-based; set-up: dose 2 mg/kg
[6] = tested on: Trypanosoma evansi; assay: Antimicrobial activity against Trypanosoma evansi STIB 806K infected in NMRI mouse assessed as host survival days at 0.25 mg/kg, ip administered 3 to 6 days after infection for 4 consecutive days; assay type: functional; conditions: route intraperitoneal
[7] = tested on: Trypanosoma evansi; assay: Antimicrobial activity against Trypanosoma evansi STIB 806K infected in NMRI mouse assessed as host survival days at 1 mg/kg, ip administered 3 to 6 days after infection for 4 consecutive days; assay type: functional; conditions: route intraperitoneal
[8] = tested on: Trypanosoma evansi; assay: Antimicrobial activity against Trypanosoma evansi STIB 806K infected in NMRI mouse assessed as complete cure from microbial infection at 0.2 mg/kg, ip administered 3 to 6 days after infection for 4 consecutive days; assay type: functional, organism-based; set-up: dose 0.2 mg/kg
[9] = tested on: Trypanosoma evansi; assay: Antimicrobial activity against Trypanosoma evansi STIB 806K infected in NMRI mouse assessed as host survival days at 0.2 mg/kg, ip administered 3 to 6 days after infection for 4 consecutive days; assay type: functional; conditions: route intraperitoneal
[10] = tested on: Trypanosoma evansi; assay: Antimicrobial activity against Trypanosoma evansi STIB 806K infected in NMRI mouse assessed as complete cure from microbial infection at 1 mg/kg, ip administered 3 to 6 days after infection for 4 consecutive days; assay type: functional, organism-based; set-up: dose 1 mg/kg
[11] = tested on: Trypanosoma evansi; assay: Antimicrobial activity against Trypanosoma evansi STIB 806K infected in NMRI mouse assessed as complete cure from microbial infection at 0.25 mg/kg, ip administered 3 to 6 days after infection for 4 consecutive days; assay type: functional, organism-based; set-up: dose 0.25 mg/kg
[12] = tested on: Trypanosoma evansi; assay: Antimicrobial activity against Trypanosoma evansi STIB 806K infected in NMRI mouse assessed as complete cure from microbial infection at 0.20 mg/kg, ip administered 3 to 6 days after infection for 4 consecutive days; assay type: functional, organism-based; set-up: dose 0.2 mg/kg
[13] = tested on: Trypanosoma evansi; assay: Antimicrobial activity against Trypanosoma evansi STIB 806K infected in NMRI mouse assessed as host survival days at 0.0625 mg/kg, ip administered 3 to 6 days after infection for 4 consecutive days; assay type: functional; conditions: route intraperitoneal
[14] = tested on: Trypanosoma evansi; assay: Antimicrobial activity against Trypanosoma evansi STIB 806K infected in NMRI mouse assessed as host survival days at 0.20 mg/kg, ip administered 3 to 6 days after infection for 4 consecutive days; assay type: functional; conditions: dose 0.2 mg/kg; route intraperitoneal
[15] = tested on: Trypanosoma evansi; assay: Antimicrobial activity against Trypanosoma evansi STIB 806K infected in NMRI mouse assessed as complete cure from microbial infection at 0.0625 mg/kg, ip administered 3 to 6 days after infection for 4 consecutive days; assay type: functional, organism-based; set-up: dose 0.0625 mg/kg
[16] = tested on: Trypanosoma evansi; assay: Antimicrobial activity against Trypanosoma evansi STIB 806K infected in NMRI mouse assessed as complete cure from microbial infection at 0.125 mg/kg, ip administered 3 to 6 days after infection for 4 consecutive days; assay type: functional, organism-based; set-up: dose 0.125 mg/kg
[17] = tested on: Trypanosoma evansi; assay: Antimicrobial activity against Trypanosoma evansi STIB 806K infected in NMRI mouse assessed as host survival days at 0.03125 mg/kg, ip administered 3 to 6 days after infection for 4 consecutive days; assay type: functional; conditions: route intraperitoneal

Row | SMILES | Survival [1] | Activity [2] | Survival [3] | Activity [5] | other results
1 | COc1cc(C(=N)N)ccc1-c1ccnc(-c2ccc(C(=N)N)cc2)n1 | 15 days | inactive |  |  | 
2 | N=C(N)c1ccc(-c2ccc(-c3ccc(C(=N)N)o3)cn2)cc1 |  |  | 28 days |  | 
3 | N=C(N)c1cccc(-c2ccc(-c3nc4cc(C(=N)N)ccc4[nH]3)cc2)c1 | 12 days | inactive |  |  | 
4 | Cn1c(-c2ccc(C(=N)N)cc2)ccc1-c1ccc(C(=N)N)cc1 |  |  | 49 days |  | 
5 | COc1cc(-c2ccc(C(=N)N)cc2)c(OC)cc1-c1ccc(C(=N)N)cc1 | 7 days | inactive |  |  | 
6 | N=C(N)c1ccc(-c2csc(-c3ccc(C(=N)N)cc3)n2)cc1 |  |  | 53 days |  | 
7 | N=C(N)c1ccc(-c2cccc(-c3ccc(C(=N)N)cc3)n2)cc1 | 16 days | inactive |  |  | 
8 | Cc1cc(C(=N)N)ccc1-c1cc2cc(C(=N)N)ccc2[nH]1 | 60 days | Active | 60 days | Active | Survival [4]: 29 days; Survival [6]: 51 days
9 | N=C(N)c1ccc(/N=N/Nc2ccc(C(=N)N)cc2)cc1 [DIMINAZENE] |  |  | 60 days | Active | Survival [7]: 44 days; Activity [8]: inactive; Survival [9]: 9 days
10 | N=C(N)c1ccc(-c2cc(-c3ccc(C(=N)N)cc3)on2)cc1 | 29 days |  | 60 days | Active | 
11 | N=C(N)c1ccc(-c2cccc(-c3nc4ccc(C(=N)N)cc4[nH]3)c2)nc1 |  |  | 18 days | inactive | 
12 | N=C(N)c1ccc(-c2coc(-c3ccc(C(=N)N)cc3)c2)cc1 | 57 days |  | 60 days | Active | Survival [6]: 41 days
13 | N=C(N)c1ccc(-c2ccc(-c3nc4cc(C(=N)N)ccc4o3)o2)cc1 |  |  | 23 days | inactive | 
14 | Cc1cc(=N)c2ccc(Nc3cc(C)[n+](C)c(N)n3)cc2n1C.O=S(=O)([O-])O [QUINAPYRAMINE SULFATE] | 57 days |  |  |  | Survival [7]: 60 days; Activity [10]: Active; Survival [6]: 41 days
15 | c1cc(-c2cc3cc(C4=NCCN4)ccc3[nH]2)ccc1C1=NCCN1 |  |  | 39 days |  | 
16 | COc1cc(C(=N)N)ccc1OCCCOc1ccc(C(=N)N)cc1OC |  |  | 29 days |  | 
17 | Cc1ccc(C(=O)Nc2ccc(S(=O)(=O)O)c3cc(S(=O)(=O)O)cc(S(=O)(=O)O)c23)cc1NC(=O)c1cccc(NC(=O)Nc2cccc(C(=O)Nc3cc(C(=O)Nc4ccc(S(=O)(=O)O)c5cc(S(=O)(=O)O)cc(S(=O)(=O)O)c45)ccc3C)c2)c1 [SURAMIN] | 51 days |  |  |  | Survival [7]: 60 days; Activity [10]: Active; Activity [11]: inactive; Survival [6]: 11 days

Row | SMILES | Survival [1] | Activity [2] | Survival [3] | Activity [5] | other results
18 | Cc1cc(C(=N)N)cn2cc(-c3ccc(-c4ccc(C(=N)N)cc4)o3)nc12 |  |  | 13 days | inactive | 
19 | N=C(N)c1ccc(-c2ccc(-c3ccc(C(=N)N)cc3F)o2)c(F)c1 | 43 days |  |  |  | 
20 | Cn1c(-c2ccc(C(=N)N)nc2)ccc1-c1ccc(C(=N)N)nc1 | 34 days |  |  |  | 
21 | N=C(N)c1ccc(-c2ccc(-c3ccc(C(=N)N)nc3)o2)cc1 | 60 days | Active | 60 days | Active | Survival [4]: 46 days; Survival [6]: 54 days
22 | N=C(N)c1ccc2nc(-c3ccc(-c4ccc(C(=N)N)c(F)c4)o3)[nH]c2c1 | 27 days | inactive |  |  | 
23 | N=C(N)c1ccc(-c2ccc(-c3ccc(C(=N)N)nc3)o2)nc1 | 60 days | Active | 60 days | Active | Survival [4]: 23 days; Survival [6]: 46 days
24 | Cc1cc(C2=NCCN2)ccc1-c1cc2cc(C3=NCCN3)ccc2[nH]1 | 7 days | inactive |  |  | 
25 | N=C(N)c1ccc(-c2ccc(-c3ccc(C(=N)N)cn3)o2)cc1 | 60 days | Active |  |  | Survival [4]: 50 days; Activity [11]: Active; Survival [6]: 60 days
26 | N=C(N)c1ccc(-c2ccc(-c3ccc(C(=N)N)cc3O)o2)cc1 | 60 days | Active | 60 days | Active | Survival [4]: 32 days; Survival [6]: 38 days
27 | N=C(N)c1ccc(-c2ccc(-c3ccc4ccc(C(=N)N)cc4c3)o2)cc1 | 15 days | inactive |  |  | 
28 | CNC(=N)c1ccc(OCCCCCOc2ccc(C(=N)NC)cc2)cc1 |  |  | 29 days | inactive | 
29 | N=C(N)c1ccc(-c2ccc(-c3cn4cc(C(=N)N)ccc4n3)cc2)cc1 |  |  | 35 days |  | Activity [8]: inactive; Survival [9]: 12 days
30 | CNC(=N)Nc1ccc(-c2ccc(-c3ccc(NC(=N)NC)cc3)cc2)cc1 | 13 days | inactive |  |  | 
31 | N=C(N)c1ccc(-c2ccc(-c3ccc(C(=N)N)cc3)o2)cc1 [FURAMIDINE] |  |  |  |  | Survival [4]: 55 days; Activity [12]: Active; Survival [13]: 29 days; Survival [14]: 60 days; Activity [11]: Active; Survival [6]: 60 days
32 | Cc1cc(C(=N)N)ccc1-c1ccc(-c2nc3ccc(C(=N)N)cc3[nH]2)o1 | 16 days | inactive |  |  | 
33 | NCCS[As](SCCN)c1ccc(Nc2nc(N)nc(N)n2)cc1 |  |  |  |  | Survival [4]: 60 days; Activity [15]: Active; Activity [16]: Active; Survival [17]: 37 days; Survival [13]: 60 days
